Values after ≈ are worked out from the molar mass of the structure shown. Like-named read-outs stand apart in the source and are kept apart here.
Columns and labels:
[1] = UV/pH titration in aqueous medium (pKa determination); assay type: physicochemical; details: for pKa: aqueous 0.15 M KCl solution, UV/pH titration in aqueous medium, I = 0.15 M KCl; for predominant protonated macrospecies: calculated from pKa values at 37 °C
Method: The pKa values of telmisartan were determined by UV-pH titration using the D-PAS™ ultra-violet spectrophotometer attached to a GLpKa instrument (Sirius Analytical Instruments Ltd., Forest Row, UK). First, a stock solution of TEL was prepared in methanol (2 mg/mL). […] Spectra were registered in the 200–700 nm region. The pKa values were calculated by RefinementPro^TM software (Sirius Analytical Instruments Ltd., Forest Row, UK).

[2] = UV/pH titration in MeOH-water mixtures with Yasuda–Shedlovsky extrapolation; assay type: physicochemical; details: methanol-water mixtures, UV/pH titration in MeOH-water mixture, 25 °C, aqueous value by Yasuda–Shedlovsky extrapolation
Method: The cosolvent dissociation constants (psKa values) were determined in various MeOH-water mixtures between 8–34% (w/w) under the same experimental conditions as in aqueous medium. The aqueous pKa values were calculated from the measured psKa values in methanol-water solutions using the Yasuda–Shedlovsky extrapolation method. The Yasuda–Shedlovsky procedure is based on the linear relation between psKa and the dielectric constant (ε) of the cosolvent mixture:(1) psKa+log[H2O]=a/ε+b where ε is the dielectric constant, and log[H2O] is the molar water concentration of the given methanol-water mixture.

[3] = Thermodynamic (equilibrium) solubility, saturation shake-flask, in Prisma HT buffer; assay type: physicochemical; details: thermodynamic from solid
Method: (§1) The methods for thermodynamic solubility measurements can be found in Baka et al. (measured amount of TEL: 1 mg/mL, 37 °C, 6 h strirring, 18 h sedimentation). During the thermodynamic solubility measurements in Prisma buffers the concentration of the API was determined without filtering the solutions by the Rainbow Dynamic Dissolution Monitor instrument (Pion Inc., Billerica, MA, USA). In the case of solubility measurements in distilled water, the concentration of the API after filtration with PVDF membrane (0.22 µm) was determined by Jasco V-550 UV–vis spectrophotometer (Jasco Inc., Easton, MD, USA).

[4] = Thermodynamic (equilibrium) solubility, saturation shake-flask, in distilled water; assay type: physicochemical
Method: as §1

[5] = Analysis of solubility-pH data with pDISOL-X; assay type: physicochemical; details: from thermodynamic solubility-pH data in distilled water
Text: For the analysis of solubility-pH profile, the pDISOL-X^TM program (in-ADME Research, NY, USA) was used. The mathematical approach used in the program for log S-pH simulation-refinement has been described by Völgyi et al.. The program has been applied in several other recent studies.

[6] = ESI mass spectrometry of saturated solutions (aggregation); assay type: physicochemical; details: buffer-free saturated solution
Method: An ESI- triple quadrupole-MS/MS instrument (4000 Q TRAP) from Applied Biosystems (Foster City, CA, USA) was used for the MS and MS/MS measurements. Compounds were analyzed in the positive mode, and the settings were ion spray voltage 4500 V, ion source gas (N2) 16 arbitrary units (a.u.), curtain gas (N2) 10 a.u., declustering potential 20 V, and entrance potential 10 V. For MS/MS experiments, the settings were collision gas (N2) medium, and collision energy 51 V. Saturated samples were infused at a rate of 6 μL/min using Harvard Apparatus Syringe pump (Holliston, MA, USA). Analyst 1.4.2. software from Applied Biosystems (Foster City, CA, USA) was used for data acquisition and processing.

[7] = between pH 3–8; cited from earlier work

pKa ([1]; 25 °C, read-out: pKa1 ± SD (Carboxyl Group)): 3.03 ± 0.04
pKa ([1]; 25 °C, read-out: pKa2 ± SD (Middle Benzimidazole Ring)): 4.22 ± 0.09
pKa ([1]; 25 °C, read-out: pKa3 ± SD (Terminal Benzimidazole Ring)): 6.08 ± 0.07
pKa ([1]; 37 °C, read-out: pKa1 ± SD (Carboxyl Group)): 3.04 ± 0.03
pKa ([1]; 37 °C, read-out: pKa2 ± SD (Middle Benzimidazole Ring)): 4.08 ± 0.02
pKa ([1]; 37 °C, read-out: pKa3 ± SD (Terminal Benzimidazole Ring)): 5.91 ± 0.05
predominant protonated macrospecies ([1]; gastric pH (pH 1–2)): dication (XH3^2+)
predominant protonated macrospecies ([1]; pH of plasma (pH 7.4)): anionic (X^−)
pKa ([2]; read-out: pKa1 ± SD (Carboxyl Group)): 3.03 ± 0.06
pKa ([2]; read-out: pKa2 ± SD (Middle Benzimidazole Ring)): 4.19 ± 0.07
pKa ([2]; read-out: pKa3 ± SD (Terminal Benzimidazole Ring)): 6.14 ± 0.1
solubility thermodynamic at 6 h ([3]; aqueous buffer, pH 2.15, 37 °C, read-out: Equilibrium solubility S ± SD): 119 ± 11.8 µg/mL
solubility thermodynamic at 6 h ([3]; aqueous buffer, pH 2.15, 37 °C, read-out: Equilibrium solubility logS ± SD (converted)): 229 µM
solubility thermodynamic at 6 h ([3]; aqueous buffer, pH 3.08, 37 °C, read-out: Equilibrium solubility S ± SD): 13.1 ± 1.73 µg/mL
solubility thermodynamic at 6 h ([3]; aqueous buffer, pH 3.08, 37 °C, read-out: Equilibrium solubility logS ± SD (converted)): 25.1 µM
solubility thermodynamic at 6 h ([3]; aqueous buffer, pH 3.82, 37 °C, read-out: Equilibrium solubility S ± SD): 3.62 ± 0.59 µg/mL
solubility thermodynamic at 6 h ([3]; aqueous buffer, pH 3.82, 37 °C, read-out: Equilibrium solubility logS ± SD (converted)): 7.08 µM
solubility thermodynamic at 6 h ([3]; aqueous buffer, pH 7.88, 37 °C, read-out: Equilibrium solubility S ± SD): 11.5 ± 0.26 µg/mL
solubility thermodynamic at 6 h ([3]; aqueous buffer, pH 7.88, 37 °C, read-out: Equilibrium solubility logS ± SD (converted)): 22.4 µM
solubility thermodynamic at 6 h ([3]; aqueous buffer, pH 9.00, 37 °C, read-out: Equilibrium solubility S ± SD): 130 ± 2.73 µg/mL
solubility thermodynamic at 6 h ([3]; aqueous buffer, pH 9.00, 37 °C, read-out: Equilibrium solubility logS ± SD (converted)): 251 µM
solubility thermodynamic at 6 h ([3]; aqueous buffer, pH 9.79, 37 °C, read-out: Equilibrium solubility S ± SD): 1470 ± 255 µg/mL
solubility thermodynamic at 6 h ([3]; aqueous buffer, pH 9.79, 37 °C, read-out: Equilibrium solubility logS ± SD (converted)): 2880 µM
solubility thermodynamic at 6 h ([3]; aqueous buffer, pH 11.74, 37 °C, read-out: Equilibrium solubility S ± SD): 2250 ± 145 µg/mL
solubility thermodynamic at 6 h ([3]; aqueous buffer, pH 11.74, 37 °C, read-out: Equilibrium solubility logS ± SD (converted)): 4370 µM
solubility thermodynamic at 6 h ([3]; pH 1.6, aqueous buffer, pH 1.60, 37 °C, read-out: Equilibrium solubility S ± SD): 150 ± 38 µg/mL
solubility thermodynamic at 6 h ([3]; pH 1.6, aqueous buffer, pH 1.60, 37 °C, read-out: Equilibrium solubility logS ± SD (converted)): 288 µM
solubility thermodynamic at 6 h ([3]; pH 2.5, aqueous buffer, pH 2.50, 37 °C, read-out: Equilibrium solubility S ± SD): 17 ± 0.72 µg/mL
solubility thermodynamic at 6 h ([3]; pH 2.5, aqueous buffer, pH 2.50, 37 °C, read-out: Equilibrium solubility logS ± SD (converted)): 47.9 µM
solubility thermodynamic at 6 h ([3]; pH 6.5, aqueous buffer, pH 6.50, 37 °C, read-out: Equilibrium solubility S ± SD): 0.79 ± 0.16 µg/mL
solubility thermodynamic at 6 h ([3]; pH 6.5, aqueous buffer, pH 6.50, 37 °C, read-out: Equilibrium solubility logS ± SD (converted)): 1.58 µM
solubility thermodynamic at 6 h ([3]; pH 9.4, aqueous buffer, pH 9.40, 37 °C, read-out: Equilibrium solubility S ± SD): 275 ± 9.4 µg/mL
solubility thermodynamic at 6 h ([3]; pH 9.4, aqueous buffer, pH 9.40, 37 °C, read-out: Equilibrium solubility logS ± SD (converted)): 537 µM
solubility thermodynamic at 6 h ([4]; pH 2.66, 37 °C, read-out: Equilibrium solubility S ± SD): 10.8 ± 0.53 µg/mL
solubility thermodynamic at 6 h ([4]; pH 2.66, 37 °C, read-out: Equilibrium solubility logS ± SD (converted)): 20.9 µM
solubility thermodynamic at 6 h ([4]; thermodynamic from solid, pH 2.16, 37 °C, read-out: Equilibrium solubility S ± SD): 148 ± 5.48 µg/mL
solubility thermodynamic at 6 h ([4]; thermodynamic from solid, pH 2.16, 37 °C, read-out: Equilibrium solubility logS ± SD (converted)): 288 µM
solubility thermodynamic at 6 h ([4]; thermodynamic from solid, pH 3.08, 37 °C, read-out: Equilibrium solubility S ± SD): 3.4 ± 0.49 µg/mL
solubility thermodynamic at 6 h ([4]; thermodynamic from solid, pH 3.08, 37 °C, read-out: Equilibrium solubility logS ± SD (converted)): 6.61 µM
solubility thermodynamic at 6 h ([4]; thermodynamic from solid, pH 3.98, 37 °C, read-out: Equilibrium solubility S ± SD): 0.36 ± 0.12 µg/mL
solubility thermodynamic at 6 h ([4]; thermodynamic from solid, pH 3.98, 37 °C, read-out: Equilibrium solubility logS ± SD (converted)): 0.692 µM
solubility thermodynamic at 6 h ([4]; thermodynamic from solid, pH 7.22, 37 °C, read-out: Equilibrium solubility S ± SD): 3.65 ± 0.11 µg/mL
solubility thermodynamic at 6 h ([4]; thermodynamic from solid, pH 7.22, 37 °C, read-out: Equilibrium solubility logS ± SD (converted)): 7.08 µM
solubility thermodynamic at 6 h ([4]; thermodynamic from solid, pH 7.4, 37 °C, read-out: Equilibrium solubility S ± SD): 13.8 ± 2.81 µg/mL
solubility thermodynamic at 6 h ([4]; thermodynamic from solid, pH 7.4, 37 °C, read-out: Equilibrium solubility logS ± SD (converted)): 26.9 µM
dimerization constant logK21 [5]: 6.48 ± 0.19
dimerization constant logK22 [5]: 6.35 ± 0.47
solubility ([5]; thermodynamic from solid, read-out: calculated intrinsic solubility logS0 (converted)): 0.302 µM (≈ 0.155 µg/mL)
dimerization in solution by MS ([6]; higher pHs (e.g., pH 10)): no dimerization could be observed
Compound: CCCc1nc2c(C)cc(-c3nc4ccccc4n3C)cc2n1Cc1ccc(-c2ccccc2C(=O)O)cc1 [Telmisartan, telmisartan]
predominant protonated macrospecies ([1]; intestinal pH (pH 5–6.5)): monoprotonated (XH) and the unprotonated anionic (X^−)
dimerization in solution by MS ([6]; pH range 3–8): peak corresponding to the dimeric structure could be detected
solubility [7]: low solubility

— article PMC9412861, “Understanding the pH Dependence of Supersaturation State—A Case Study of Telmisartan” (Pharmaceutics, 2022)
